± gives the standard deviation of the averaged measurements.
Columns and labels:
Experiment in all cases: drug sensitivity score (DSS) (DSS score); higher = more sensitive (stronger growth inhibition); extreme values may be limits of the assay
[1] = test system: Ba/F3 P210-BCR-ABL1 RUNX1wt/wt control (mouse)
Summary of the method: (§1)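 Each value is a drug sensitivity score derived from CellTiter-Glo luminescence scaled between vehicle and positive-control wells. Mouse Ba/F3 clones, CRISPR/Cas9-edited at a target exon or edited controls, were seeded at 10,000 cells per well in RPMI with 10% FBS and treated for 72 h at 37 °C and 5% CO2. Compounds from a 528-compound library were tested at five concentrations over a 10,000-fold range, and scores were averaged over two replicates.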

[2] = test system: Ba/F3 P210-BCR-ABL1 RUNX1-/- (mouse)
Summary of the method: as §1

[3] = test system: Ba/F3 P210-BCR-ABL1 RUNX1-/mut (mouse)
Summary of the method: as §1

| Structure (SMILES) | drug sensitivity score [1] | drug sensitivity score [2] | drug sensitivity score [3] |
| --- | --- | --- | --- |
| CON(C)C(=O)N1N=C(c2cc(F)ccc2F)S[C@@]1(CCCN)c1ccccc1 [Filanesib] | 7.85 ± 0.35 | 19.6 ± 2.2 | 14.95 ± 0.071 |
| O=C(Nc1nc2cccc(-c3ccc(CN4CCS(=O)(=O)CC4)cc3)n2n1)C1CC1 [Filgotinib] | 0 | 1.5 ± 1.7 | 1.8 ± 2.5 |
| COc1cc(Nc2ncc(F)c(Nc3ccc4c(n3)N(COP(=O)(O)O)C(=O)C(C)(C)O4)n2)cc(OC)c1OC [Fostamatinib] | 0.45 ± 0.49 | 1.4 ± 0.14 | 0.45 ± 0.64 |
| CC1(C)OCCn2c1nc1c(N3CCOCC3)nc(-c3cnc(N)nc3)nc12 [GDC-0084] | 4.8 | 9.3 ± 0.14 | 10.3 ± 0.85 |
| O=C(NOCCO)c1ccc2cncn2c1Nc1ccc(I)cc1F [GDC-0623] | 0.55 ± 0.78 | 10.8 ± 8.1 | 3.7 ± 3.7 |
| C[C@H]1CN(C2COC2)CCN1c1ccc(Nc2cc(-c3ccnc(N4CCn5c(cc6c5CC(C)(C)C6)C4=O)c3CO)cn(C)c2=O)nc1 [GDC-0853] | 0 | 0 | 0 |
| O[C@H](C[C@H]1c2c(F)cccc2-c2cncn21)[C@H]1CC[C@H](O)CC1 [GDC-0919] | 1.2 ± 0.28 | 0 | 0.05 ± 0.071 |
| CNc1nc(Nc2cn(C(C)(C)C#N)nc2C)ncc1C(F)(F)F [GNE-0877] | 0 | 0 | 0 |
| CCNc1nc(Nc2cc(F)c(C(=O)N3CCOCC3)cc2OC)ncc1C(F)(F)F [GNE-7915] | 0 | 0 | 0 |
| CCCc1cc(C)[nH]c(=O)c1CNC(=O)c1cc(-c2ccnc(N3CCN(C)CC3)c2)cc2c1cnn2C(C)C [GSK343] | 0 | 0.75 ± 0.78 | 1.05 ± 1.5 |
| CCCOc1ccn2c(C(C)=O)cc(-c3ccccc3S(C)(=O)=O)c2c1 [GSK2801] | 0 | 0.1 ± 0.14 | 2.3 ± 3.2 |
| CCOC(=O)CCNc1cc(N2CCc3ccccc3CC2)nc(-c2ccccn2)n1 [GSK-J4] | 2.45 ± 0.78 | 5.1 ± 4.8 | 4.5 ± 3.8 |
| C[C@@H]1C=C2C(=O)O[C@@H]3CC[C@H](C1)[C@]23O [Galiellalactone] | 5.1 | 12 ± 3.1 | 9.7 ± 4.1 |
| Cc1cccc(-c2nn3c(c2-c2ccnc4ccc(C(N)=O)cc24)CCC3)n1 [Galunisertib] | 0 | 0 | 0 |
| Cc1cc(Nc2cc(CN3CCOCC3)c3nc(C)c(Cc4ccc(Cl)cc4F)n3n2)n[nH]1 [Gandotinib] | 2.35 ± 0.21 | 4.8 ± 0.71 | 4.9 ± 1.6 |
| CC(C)c1cc(-c2n[nH]c(=O)n2-c2ccc3c(ccn3C)c2)c(O)cc1O [Ganetespib] | 19.1 ± 0.21 | 24.8 ± 3.4 | 23.6 ± 2.2 |
| CN(C)C1CCN(C(=O)c2ccc(NC(=O)Nc3ccc(-c4nc(N5CCOCC5)nc(N5CCOCC5)n4)cc3)cc2)CC1 [Gedatolisib] | 4.55 ± 0.071 | 13.6 ± 0.35 | 15.2 ± 0.92 |
| CCc1nc(C(N)=O)c(Nc2ccc(N3CCC(N4CCN(C)CC4)CC3)c(OC)c2)nc1NC1CCOCC1 [Gilteritinib] | 3.25 ± 0.78 | 6.2 ± 2 | 8.4 ± 2.5 |
| CCN(CC)Cc1ccc2cc(COC(=O)Nc3ccc(C(=O)NO)cc3)ccc2c1 [Givinostat] | 7.9 ± 0.99 | 13.4 ± 0.28 | 12.7 ± 0.57 |
| CN1CC[C@@H](NC(=O)Nc2ccc(C#N)cc2)C[C@@H]1c1nc2ccccc2[nH]1 [Glasdegib] | 0.05 ± 0.071 | 0 | 0 |
| COCCNCc1ccc(-c2cc3nccc(Oc4ccc(NC(=S)NC(=O)Cc5ccc(F)cc5)cc4F)c3s2)nc1 [Glesatinib] | 0 | 7.4 ± 0.14 | 3.55 ± 1.1 |
| CN1CCN(C2CCN(C(=O)Nc3cc(Oc4ccc(NC(=O)C5(C(=O)Nc6ccc(F)cc6)CC5)c(F)c4)ccn3)CC2)CC1 [Golvatinib] | 0 | 3.95 ± 2 | 1.8 ± 2 |
| CC(C)C[C@H](NC(=O)[C@@H](COC(C)(C)C)NC(=O)[C@H](Cc1ccc(O)cc1)NC(=O)[C@H](CO)NC(=O)[C@H](Cc1c[nH]c2ccccc12)NC(=O)[C@H](Cc1cnc[nH]1)NC(=O)[C@@H]1CCC(=O)N1)C(=O)N[C@@H](CCCNC(=N)N)C(=O)N1CCC[C@H]1C(=O)NNC(N)=O [Goserelin] | 0 | 0 | 0.4 |

Source: the supplement of paper PMC8024199
